Like-named read-outs stand apart in the source and are kept apart here.
Tests used:
Assay type in all cases: in vivo
[1] = system: bermudagrass (Cynodon dactylon); assay: Test C postemergence greenhouse test, plant response rating 0-100; settings: for Plant response rating, Bermudagrass: scale 0 to 100
In short: (§1)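 First, plants were raised in a sphagnum peat, vermiculite and nutrient medium to 1–4 leaves. Next, formulated test compounds were applied over the foliage. Finally, after 13–15 greenhouse days, injury was compared with controls and scored 0–100.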

[2] = system: goosegrass (Eleusine indica); assay: as above; settings: for Plant response rating, Goosegrass: scale 0 to 100
In short: as §1

[3] = system: blackgrass (Alopecurus myosuroides); assay: Test C pre-/postemergence greenhouse test, plant response rating 0-100; settings: Alopecurus myosuroides; for pest or weed control at 62 g/ha: 62 g ai/ha; for pest or weed control at 125 g/ha: 125 g ai/ha; for pest or weed control at 250 g/ha: 250 g ai/ha; for pest or weed control at 500 g/ha: 500 g ai/ha;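 as to all read-outs here: 0 is no effect and 100 is complete control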
In short: (§2)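 Plants were scored visually against controls 13–15 days after treatment on a 0–100 scale, 100 meaning complete control. Test chemicals, formulated in surfactant-containing non-phytotoxic solvent, went preemergence onto seeds in loam–sand blend or postemergence onto 1- to 4-leaf plants (2–18 cm) grown in peat-based mix.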

[4] = system: pigweed (Amaranthus retroflexus); assay: as above; settings: Amaranthus retroflexus; for pest or weed control at 62 g/ha: 62 g ai/ha; for pest or weed control at 250 g/ha: 250 g ai/ha; for pest or weed control at 500 g/ha: 500 g ai/ha
In short: as §2

[5] = system: Italian ryegrass (Lolium multiflorum); assay: as above; settings: Lolium multiflorum; for pest or weed control at 62 g/ha: 62 g ai/ha; for pest or weed control at 125 g/ha: 125 g ai/ha; for pest or weed control at 250 g/ha: 250 g ai/ha; for pest or weed control at 500 g/ha: 500 g ai/ha
In short: as §2

[6] = system: morningglory (Ipomoea coccinea); assay: as above; settings: Ipomoea; for pest or weed control at 62 g/ha: 62 g ai/ha; for pest or weed control at 125 g/ha: 125 g ai/ha; for pest or weed control at 250 g/ha: 250 g ai/ha; for pest or weed control at 500 g/ha: 500 g ai/ha
In short: as §2

[7] = system: ragweed (common ragweed, Ambrosia elatior); assay: as above; settings: Ambrosia artemisiifolia; for pest or weed control at 62 g/ha: 62 g ai/ha; for pest or weed control at 125 g/ha: 125 g ai/ha; for pest or weed control at 250 g/ha: 250 g ai/ha; for pest or weed control at 500 g/ha: 500 g ai/ha;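 as to all read-outs here: 0 is no effect and 100 is complete control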
In short: as §2

[8] = system: velvetleaf (Abutilon theophrasti); assay: as above; settings: Abutilon theophrasti; for pest or weed control at 62 g/ha: 62 g ai/ha; for pest or weed control at 125 g/ha: 125 g ai/ha; for pest or weed control at 250 g/ha: 250 g ai/ha; for pest or weed control at 500 g/ha: 500 g ai/ha
In short: as §2

corn (Zea mays) = assay: as above; settings: Zea mays, pre-emergence, Preemergence
In short: as §2

[9] = system: yellow nutsedge (Cyperus esculentus); assay: as above; settings: Cyperus; for pest or weed control at 62 g/ha: 62 g ai/ha; for pest or weed control at 125 g/ha: 125 g ai/ha; for pest or weed control at 250 g/ha: 250 g ai/ha; for pest or weed control at 500 g/ha: 500 g ai/ha
In short: as §2

[10] = system: large (Lg) crabgrass (Digitaria sanguinalis); assay: as above; settings: Digitaria sanguinalis; for pest or weed control at 62 g/ha: 62 g ai/ha; for pest or weed control at 125 g/ha: 125 g ai/ha; for pest or weed control at 250 g/ha: 250 g ai/ha; for pest or weed control at 500 g/ha: 500 g ai/ha
In short: as §2

[11] = system: galium (catchweed bedstraw, Galium aparine); assay: as above; settings: Galium; for pest or weed control at 62 g/ha: 62 g ai/ha; for pest or weed control at 125 g/ha: 125 g ai/ha; for pest or weed control at 250 g/ha: 250 g ai/ha; for pest or weed control at 500 g/ha: 500 g ai/ha
In short: as §2

[12] = system: lambsquarters (Chenopodium album); assay: as above; settings: Chenopodium album; for pest or weed control at 62 g/ha: 62 g ai/ha; for pest or weed control at 125 g/ha: 125 g ai/ha; for pest or weed control at 250 g/ha: 250 g ai/ha; for pest or weed control at 500 g/ha: 500 g ai/ha
In short: as §2

soybean (Glycine max) = assay: as above; settings: Glycine max; for plant injury at 62 g/ha: 62 g ai/ha; for plant injury at 125 g/ha: 125 g ai/ha; for plant injury at 250 g/ha: 250 g ai/ha; for plant injury at 500 g/ha: 500 g ai/ha
In short: as §2

[13] = post-emergence, Postemergence, read-out: Plant response rating (0 to 100), Blackgrass
[14] = post-emergence, Postemergence, scale 0 to 100
[15] = pre-emergence, Preemergence, read-out: Plant response rating, Blackgrass
[16] = post-emergence, Postemergence, read-out: Plant response rating (0 to 100), Ryegrass, Italian
[17] = pre-emergence, Preemergence, read-out: Plant response rating, Ryegrass, Italian
[18] = post-emergence, Postemergence, read-out: Plant response rating (0 to 100), Morningglory
[19] = pre-emergence, Preemergence, read-out: Plant response rating, Morningglory
[20] = post-emergence, Postemergence, read-out: Plant response rating (0 to 100), Ragweed
[21] = pre-emergence, Preemergence, read-out: Plant response rating, Ragweed
[22] = post-emergence, Postemergence, read-out: Plant response rating (0 to 100), Velvetleaf
[23] = pre-emergence, Preemergence, read-out: Plant response rating, Velvetleaf
[24] = post-emergence, Postemergence, read-out: Plant response rating (0 to 100), Nutsedge, Yellow
[25] = pre-emergence, Preemergence, read-out: Plant response rating, Nutsedge, Yellow
[26] = post-emergence, Postemergence, read-out: Plant response rating (0 to 100), Crabgrass, Large
[27] = pre-emergence, Preemergence, read-out: Plant response rating, Crabgrass, Large
[28] = post-emergence, Postemergence, read-out: Plant response rating (0 to 100), Galium
[29] = pre-emergence, Preemergence, read-out: Plant response rating, Galium
[30] = post-emergence, Postemergence, read-out: Plant response rating (0 to 100), Lambsquarters
[31] = pre-emergence, Preemergence, read-out: Plant response rating, Lambsquarters
[32] = post-emergence, Postemergence, read-out: Plant response rating (0 to 100), Soybean
[33] = pre-emergence, Preemergence, read-out: Plant response rating, Soybean

C#CCn1cc(C(=O)c2ccccc2)c(-c2cc(Cl)cc(Cl)c2)n1 [Compound 39, [3-(3,5-dichlorophenyl)-1-(2-propyn-1-yl)-1H-pyrazol-4-yl]phenylmethanone]
Plant response rating (0 to 100), Bermudagrass ([1]; 62 g ai/ha): 0
Plant response rating (0 to 100), Bermudagrass ([1]; 125 g ai/ha): 0
Plant response rating, Bermudagrass ([1]; 250 g ai/ha): 0
Plant response rating, Bermudagrass ([1]; 500 g ai/ha): 0
Plant response rating (0 to 100), Goosegrass ([2]; 62 g ai/ha): 0
Plant response rating (0 to 100), Goosegrass ([2]; 125 g ai/ha): 0
Plant response rating, Goosegrass ([2]; 250 g ai/ha): 0
Plant response rating, Goosegrass ([2]; 500 g ai/ha): 0
pest or weed control at 62 g/ha [3, 13]: 0%
pest or weed control at 125 g/ha [3, 13]: 0%
pest or weed control at 250 g/ha [3, 14]: 0%
pest or weed control at 500 g/ha [3, 14]: 0%
pest or weed control at 62 g/ha [3, 15]: 0%
pest or weed control at 125 g/ha [3, 15]: 0%
pest or weed control at 250 g/ha ([3]; pre-emergence, Preemergence): 0%
pest or weed control at 500 g/ha ([3]; pre-emergence, Preemergence): 0%
pest or weed control at 62 g/ha ([4]; post-emergence, Postemergence, read-out: Plant response rating (0 to 100), Pigweed): 90%
pest or weed control at 250 g/ha [4, 14]: 98%
pest or weed control at 500 g/ha [4, 14]: 98%
pest or weed control at 62 g/ha ([4]; pre-emergence, Preemergence, read-out: Plant response rating, Pigweed): 45%
pest or weed control at 125 g/ha ([4]; pre-emergence, Preemergence, 125 g ai/ha, read-out: Plant response rating, Pigweed): 75%
pest or weed control at 250 g/ha ([4]; pre-emergence, Preemergence): 85%
pest or weed control at 500 g/ha ([4]; pre-emergence, Preemergence): 95%
pest or weed control at 62 g/ha [5, 16]: 0%
pest or weed control at 125 g/ha [5, 16]: 0%
pest or weed control at 250 g/ha [5, 14]: 0%
pest or weed control at 500 g/ha [5, 14]: 0%
pest or weed control at 62 g/ha [5, 17]: 0%
pest or weed control at 125 g/ha [5, 17]: 0%
pest or weed control at 250 g/ha ([5]; pre-emergence, Preemergence): 0%
pest or weed control at 500 g/ha ([5]; pre-emergence, Preemergence): 0%
pest or weed control at 62 g/ha [6, 18]: 0%
pest or weed control at 125 g/ha [6, 18]: 0%
pest or weed control at 250 g/ha [6, 14]: 10%
pest or weed control at 500 g/ha [6, 14]: 10%
pest or weed control at 62 g/ha [6, 19]: 20%
pest or weed control at 125 g/ha [6, 19]: 20%
pest or weed control at 250 g/ha ([6]; pre-emergence, Preemergence): 20%
pest or weed control at 500 g/ha ([6]; pre-emergence, Preemergence): 20%
pest or weed control at 62 g/ha [7, 20]: 10%
pest or weed control at 125 g/ha [7, 20]: 10%
pest or weed control at 250 g/ha [7, 14]: 35%
pest or weed control at 500 g/ha [7, 14]: 35%
pest or weed control at 62 g/ha [7, 21]: 0%
pest or weed control at 125 g/ha [7, 21]: 20%
pest or weed control at 250 g/ha ([7]; pre-emergence, Preemergence): 45%
pest or weed control at 500 g/ha ([7]; pre-emergence, Preemergence): 45%
pest or weed control at 62 g/ha [8, 22]: 75%
pest or weed control at 125 g/ha [8, 22]: 85%
pest or weed control at 250 g/ha [8, 14]: 85%
pest or weed control at 500 g/ha [8, 14]: 98%
pest or weed control at 62 g/ha [8, 23]: 55%
pest or weed control at 125 g/ha [8, 23]: 65%
pest or weed control at 250 g/ha ([8]; pre-emergence, Preemergence): 65%
pest or weed control at 500 g/ha ([8]; pre-emergence, Preemergence): 80%
Corn plant response rating (crop injury, 0 = no effect, 100 = complete kill) at 62 g/ha (corn (Zea mays); 62 g ai/ha): 0%
Corn plant response rating (crop injury, 0 = no effect, 100 = complete kill) at 125 g/ha (corn (Zea mays); 125 g ai/ha): 0%
Corn plant response rating (crop injury, 0 = no effect, 100 = complete kill) at 250 g/ha (corn (Zea mays); 250 g ai/ha): 0%
pest or weed control at 62 g/ha [9, 24]: 0%
pest or weed control at 125 g/ha [9, 24]: 0%
pest or weed control at 250 g/ha [9, 14]: 0%
pest or weed control at 500 g/ha [9, 14]: 5%
pest or weed control at 62 g/ha [9, 25]: 0%
pest or weed control at 125 g/ha [9, 25]: 0%
pest or weed control at 250 g/ha ([9]; pre-emergence, Preemergence): 0%
pest or weed control at 500 g/ha ([9]; pre-emergence, Preemergence): 0%
pest or weed control at 62 g/ha [10, 26]: 0%
pest or weed control at 125 g/ha [10, 26]: 0%
pest or weed control at 250 g/ha [10, 14]: 5%
pest or weed control at 500 g/ha [10, 14]: 15%
pest or weed control at 62 g/ha [10, 27]: 0%
pest or weed control at 125 g/ha [10, 27]: 0%
pest or weed control at 250 g/ha ([10]; pre-emergence, Preemergence): 0%
pest or weed control at 500 g/ha ([10]; pre-emergence, Preemergence): 0%
pest or weed control at 62 g/ha [11, 28]: 0%
pest or weed control at 125 g/ha [11, 28]: 0%
pest or weed control at 250 g/ha [11, 14]: 0%
pest or weed control at 500 g/ha [11, 14]: 0%
pest or weed control at 62 g/ha [11, 29]: 0%
pest or weed control at 125 g/ha [11, 29]: 0%
pest or weed control at 250 g/ha ([11]; pre-emergence, Preemergence): 5%
pest or weed control at 500 g/ha ([11]; pre-emergence, Preemergence): 80%
pest or weed control at 62 g/ha [12, 30]: 80%
pest or weed control at 125 g/ha [12, 30]: 80%
pest or weed control at 250 g/ha [12, 14]: 100%
pest or weed control at 500 g/ha [12, 14]: 100%
pest or weed control at 62 g/ha [12, 31]: 30%
pest or weed control at 125 g/ha [12, 31]: 100%
pest or weed control at 250 g/ha ([12]; pre-emergence, Preemergence): 100%
pest or weed control at 500 g/ha ([12]; pre-emergence, Preemergence): 100%
plant injury at 62 g/ha (soybean (Glycine max); [32]): 0%
plant injury at 125 g/ha (soybean (Glycine max); [32]): 0%
plant injury at 250 g/ha (soybean (Glycine max); [14]): 0%
plant injury at 500 g/ha (soybean (Glycine max); [14]): 0%
plant injury at 62 g/ha (soybean (Glycine max); [33]): 0%
plant injury at 125 g/ha (soybean (Glycine max); [33]): 0%
plant injury at 250 g/ha (soybean (Glycine max); pre-emergence, Preemergence): 0%
plant injury at 500 g/ha (soybean (Glycine max); pre-emergence, Preemergence): 0%

Source: patent US10167262B2, “Herbicidal substituted 3-arylpyrazoles” (FMC CORPORATION, priority 2014, dated 2019)
